From patent US20250134853A1, “COMPOUNDS AND METHODS FOR USING GALLOYLATED POLYPHENOLS TO TREAT DISEASES MEDIATED BY THIOL ISOMERASES” (Beth Israel Deaconess Medical Center, Inc., priority 2023, published 2025)
“Also recorded” adds a separate entry of the source.

What was measured:
PDI [1] = biological target: T1, PDI (Homo sapiens, UniProt P07237); assay: Maleimide-pegylated biotin (MPB) binding to PDI; details: preincubation with compound
T1 construct: FLAG; made in house; host or cells: Escherichia coli Origami B (DE3)
Experimental: PDI was then exposed to MPB in Laemmli Sample buffer for 10 minutes. Samples were subsequently analyzed for MPB labeling with […] after SDS-PAGE and immunoblotting.
Maleimide-pegylated Biotin (MPB) binding. MPB-binding experiments were performed in a reaction volume of 37.5 μL of polyphenols with 5 μM of thiol isomerase in phosphate buffered saline (PBS). The reaction mixture was incubated at 37° C. for 1 h. Subsequently, the reaction mixtures were incubated with 25 μM of MPB. The labelling was performed for 20 min at 25° C. A total of 12.5 μL of 4× Laemmli Sample Buffer with 10% v/v β-mercaptoethanol was added to each of the samples, followed by heating at 95° C. for 10 min. From each sample, 10 μL was loaded on a 4-15% SDS-PAGE TGX gel, followed by transfer on a nitrocellulose membrane. After blocking the membrane with tris-buffered saline containing 0.1% v/v Tween-20 (TBS-T) containing 5% BSA for 1 h, the membrane was incubated with a 1:2,000 dilution of streptavidin-HRP in TBS-T for an hour in the dark. Detection of the immunoblots was performed using a BioRad ChemiDoc MP imager.

PDI [2] = biological target: T1, PDI; assay: Jump dilution reversibility, di-eosin-GSSG assay; format: biochemical; details: 50 μM, 30 min, then 100-fold dilution
Experimental: FIGS. 6A and 6B are plots showing % PDI activity. […] To test reversibility, the samples containing 50 μM compounds were then diluted 1:100. PDI activity was evaluated using a di-eosin-GSSG reductase assay. Data represented as mean SEM.
After 30 minutes of equilibration, the PDI-inhibitor mixture was diluted 100-fold with thiol isomerase assay buffer where the final concentration of enzyme is 0.2 μM and compounds at 500 nM or 50 μM. Di-eosin-GSSG was added to a final concentration of 300 nM and the assay was immediately recorded for 1 h.

PDI [3] = biological target: T1, PDI; assay: SDS-PAGE molecular weight shift (alkylation of PDI free thiols); format: biochemical
Source text: FIG. 5 is an image of gel showing detection of PDI free thiol by the labeling of acetamido maleimidylstilbene disulfonic acid (AMS), which shifts the protein to a higher apparent molecular weight.
4-acetomido-4′-maleimidylstilbene-2,2′ disulfonic acid (AMS), which shifts the mass of the protein by 500 Da for every cysteine alkylated, was used as a positive control. […] N-ethylmaleimide (NEM) was used for a control experiment because covalent alkylation of the free thiols will expectedly prevent PDI activity (FIG. 6A).

SARS-CoV-2 M^pro = SARS-CoV-2 M^pro (Severe acute respiratory syndrome coronavirus 2, UniProt P0DTD1); details: cited from earlier work
[4] = test system: PDI mutants in which His55 and His399 were replaced; details: 10 μM PGHG, 15 min
Experimental: Data represented as mean±SEM.
Di-eosin-GSSG disulfide reductase assay. […] Di-eosin-GSSG cleavage of purified thiol isomerases and PDI domains was monitored in a 96-well fluorescence plate format. PDI, CGXC-PDI variants, ERp5, ERp57, ERp46 and PDI domains were assayed at 50 nM in the presence or absence of the indicated small molecules. The assay included a thiol isomerase assay buffer (39 mM KH2PO4, 61 mM K2HPO4, 2 mM EDTA, 5 M DTT, pH 7.4) and 150 nM of the di-eosin-GSSG probe. The increase in fluorescence was determined for 60 min by excitation at 520 nm and emission at 550 nm in a Synergy Biotek 4. The reduction of 150 nM di-eosin-GSSG by 5 μM DTT in the presence or absence of mentioned small molecule or proteins served as a negative control.

PDI [5] = biological target: T1, PDI; assay: Di-eosin-GSSG disulfide reductase assay, PDI; format: biochemical
Experimental: Di-eosin-GSSG disulfide reductase assay. The probe di-eosin glutathione disulfide, di-eosin-GSSG, was prepared by incubating 100 μM of GSSG with 1 mM of eosin isothiocyanate in 100 mM potassium phosphate containing 2 mM EDTA (pH 7.4), at 25° C. overnight in the dark. The mixture was passed down a PD-10 column and different fractions were collected. A fold change of fluorescence (Ex: 520 nm, Em: 550 nm) was calculated using samples subjected to either vehicle or 20 mM of DTT. Any fraction with a fold change >5 was kept. Using a stock of 10 mM eosin isothiocyanate, a standard curve was generated and concentration of samples were determined accordingly. Di-eosin-GSSG cleavage of purified thiol isomerases and PDI domains was monitored in a 96-well fluorescence plate format. PDI, CGXC-PDI variants, ERp5, ERp57, ERp46 and PDI domains were assayed at 50 nM in the presence or absence of the indicated small molecules. The assay included a thiol isomerase assay buffer (39 mM KH2PO4, 61 mM K2HPO4, 2 mM EDTA, 5 M DTT, pH 7.4) and 150 nM of the di-eosin-GSSG probe. The increase in fluorescence was determined for 60 min by excitation at 520 nm and emission at 550 nm in a Synergy Biotek 4. The reduction of 150 nM di-eosin-GSSG by 5 μM DTT in the presence or absence of mentioned small molecule or proteins served as a negative control.

T1 sequence (P07237 18-508): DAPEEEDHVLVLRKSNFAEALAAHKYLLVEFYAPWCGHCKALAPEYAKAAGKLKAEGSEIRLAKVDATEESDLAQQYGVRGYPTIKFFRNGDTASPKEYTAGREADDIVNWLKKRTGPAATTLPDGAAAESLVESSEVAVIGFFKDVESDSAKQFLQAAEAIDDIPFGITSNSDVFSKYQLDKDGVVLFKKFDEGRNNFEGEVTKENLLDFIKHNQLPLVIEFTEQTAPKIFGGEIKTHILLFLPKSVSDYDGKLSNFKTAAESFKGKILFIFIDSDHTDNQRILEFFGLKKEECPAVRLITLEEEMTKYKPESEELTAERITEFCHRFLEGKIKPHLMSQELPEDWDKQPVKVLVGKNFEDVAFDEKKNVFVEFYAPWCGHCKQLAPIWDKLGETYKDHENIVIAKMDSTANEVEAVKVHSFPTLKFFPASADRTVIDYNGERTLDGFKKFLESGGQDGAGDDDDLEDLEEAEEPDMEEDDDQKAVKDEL

SMILES: O=C(O[C@@H]1[C@@H](O)[C@H](Oc2cc(O)c3c(c2)O[C@H](c2ccccc2)CC3=O)O[C@@H]2COC(=O)c3cc(O)c(O)c(O)c3-c3c(cc(O)c(O)c3O)C(=O)O[C@@H]12)c1cc(O)c(O)c(O)c1 [PGHG, pinocembrin 7-O-(3″-galloyl-4″,6″-(S)-hexahydroxydiphenoyl)-beta-D-glucose]
- effect on MPB binding to PDI (PDI [1]): no significant effect on MPB binding
- reversibility of PDI inhibition (PDI [2]): inhibitory activity was lost following a 100-fold dilution
- shift in molecular weight of PDI in SDS polyacrylamide gel (PDI [3]): did not induce a shift in molecular weight
- Modeling shows gallic acid interaction with His41 or Glu166 (SARS-CoV-2 M^pro): His41; Glu166
- susceptibility of His55/His399 PDI mutants (Ala, Asp, Arg) [4]: mutants were resistance to PGHG
- inhibition of PDI (in words) (PDI [5]): low micromolar range; also recorded: inhibit PDI
- IC50 (PDI [5]; read-out: PDI reductase activity IC50): 1500 ± 600 nM
